Our source for the EC50 and Emax values is patent publication US20230000842A1, “METHODS OF TREATING CARTILAGE DISORDERS THROUGH INHIBITION OF CLK AND DYRK” (SAMUMED, LLC, priority 2019, published 2023).

Structures are written as SMILES.

One test has as its target CLK3 kinase (Homo sapiens, UniProt P49761). In words: CLK3 kinase activity assay (Z-lyte FRET).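 Note: kinase activity read as coumarin/fluorescein emission ratio by FRET, unphosphorylated peptide as 0% and phosphorylated peptide as 100% control, values from non-linear regression of dose-response curves.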 The format is biochemical. To be noted: Z-lyte Ser/Thr 18 peptide, 156 μM ATP, 1 h at room temperature.
For test [1], the system named is primary human mesenchymal stem cells (hMSCs). The test is described as follows: Chondrogenesis screening using primary human mesenchymal stem cells. The note with it: Homo sapiens, Mesenchymal stem cells, hMSC chondrogenesis; for EC50: concentration required to induce 50% levels of chondrogenesis with TGF-β3 as positive control, read-out: Conc (nM) of 50% TGF-β3 activity; for Emax: maximum activity relative to TGF-β3 (10 ng/mL) positive control, read-out: Max. Activity as % TGF-β3 activity. The format is cell-based. In outline: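 Primary hMSCs at passage 3–6 were treated across compound concentrations, with TGF-β3 as positive control. Chondrogenic nodule area per well was normalized to 3 DMSO wells on the same plate (fold over DMSO, 2–3 replicates). EC50, maximum activity and the dose reaching it were derived.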

For another test, the target named is CLK2 kinase (Homo sapiens, UniProt P49760). The test is described as follows: CLK2 kinase activity assay (Z-lyte FRET).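 Note: FRET read-out as coumarin to fluorescein emission ratio, unphosphorylated peptide as 0% and phosphorylated peptide as 100% controls, duplicate reactions, non-linear regression fit of dose-response curves.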 The format is biochemical. The note with it: Z-lyte Ser/Thr 6 peptide, 60 μM ATP, 1 h at room temperature.
Chain of CLK2 kinase (P49760 whole entry): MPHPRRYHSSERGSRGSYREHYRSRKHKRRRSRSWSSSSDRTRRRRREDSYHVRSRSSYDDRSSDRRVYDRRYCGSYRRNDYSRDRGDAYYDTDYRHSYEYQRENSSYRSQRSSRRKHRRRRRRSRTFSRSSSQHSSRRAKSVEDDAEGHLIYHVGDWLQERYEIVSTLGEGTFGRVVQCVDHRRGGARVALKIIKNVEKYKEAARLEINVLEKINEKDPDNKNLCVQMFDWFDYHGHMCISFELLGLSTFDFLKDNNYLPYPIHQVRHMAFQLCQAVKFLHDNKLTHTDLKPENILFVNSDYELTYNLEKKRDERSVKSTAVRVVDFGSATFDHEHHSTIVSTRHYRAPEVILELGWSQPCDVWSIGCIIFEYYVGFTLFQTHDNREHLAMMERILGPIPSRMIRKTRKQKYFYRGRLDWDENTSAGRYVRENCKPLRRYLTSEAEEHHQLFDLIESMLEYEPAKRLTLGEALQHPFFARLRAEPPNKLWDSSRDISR
For test [2], the system named is Wnt pathway activity (SW480 colon carcinoma cells stably expressing the Sp5-Luc reporter). In words: Wnt pathway activity screening assay (Sp5-Luc reporter gene assay). The note with it: Homo sapiens, SW480, Table 4; SW480 cells stably expressing Sp5-Luc reporter, 10-point dose-response from 10 μM, 36 to 48 hours. (In general: A reporter such as luciferase makes a cellular process visible.)

Chain of CLK3 kinase (P49761 whole entry): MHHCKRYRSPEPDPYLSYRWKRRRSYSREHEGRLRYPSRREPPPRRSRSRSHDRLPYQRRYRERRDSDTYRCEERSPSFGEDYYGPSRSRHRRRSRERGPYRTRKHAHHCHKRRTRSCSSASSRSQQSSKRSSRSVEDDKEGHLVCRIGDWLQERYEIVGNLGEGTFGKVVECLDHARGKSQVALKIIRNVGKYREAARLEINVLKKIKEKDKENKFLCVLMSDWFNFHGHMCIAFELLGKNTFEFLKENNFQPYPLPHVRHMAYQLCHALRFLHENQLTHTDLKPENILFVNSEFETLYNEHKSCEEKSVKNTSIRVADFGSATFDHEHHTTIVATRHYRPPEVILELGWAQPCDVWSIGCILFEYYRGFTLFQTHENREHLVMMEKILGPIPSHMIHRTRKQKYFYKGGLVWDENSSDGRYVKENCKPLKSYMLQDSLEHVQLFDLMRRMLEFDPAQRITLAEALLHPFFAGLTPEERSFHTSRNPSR

As for `c1cncc(-c2cc3c(-c4nc5ccccc5[nH]4)n[nH]c3cn2)c1` [compound 200], the EC50 on CLK3 kinase was 0.209 µM; in test [1] it was 30 nM; on CLK2 kinase, 0.022 µM; in test [2] it was 0.0201 µM. For the same molecule, the Emax in test [1] worked out at 80.5%.
As to `c1cc2[nH]c(-c3n[nH]c4ccc(-c5cncc(CN6CCCCC6)c5)cc34)cc2c(N2CCCCC2)n1` [compound 469], the EC50 on CLK3 kinase is 0.47 µM; on CLK2 kinase, 0.006 µM; in test [2], 4.21 µM. The Emax in test [1] was found to be 48.1%.
As to `CS(=O)(=O)NCc1cc(F)cc(-c2nccc3[nH]c(-c4n[nH]c5ncc(-c6cncc(NC(=O)C7CCC7)c6)cc45)cc23)c1` [compound 528], the EC50 was 0.059 µM at CLK3 kinase, 300 nM in test [1], 0.005 µM at CLK2 kinase and 3.64 µM in test [2]. Further, the Emax in test [1] came out at 51.6%.
Consider `CCCC(=O)Nc1cncc(-c2cc3c(-c4cc5c(-c6cc(F)cc(NCCN(C)C)c6)ccnc5[nH]4)n[nH]c3cn2)c1` [compound 512], for which the EC50 on CLK3 kinase was 0.094 µM; in test [1], 10 nM; on CLK2 kinase, 0.014 µM; in test [2], greater than 10 µM. In addition, the Emax in test [1] worked out at 162%.
On to `CN(C)Cc1cncc(-c2ccc3[nH]nc(-c4nc5c(-c6cccc(F)c6)nccc5[nH]4)c3n2)c1` [compound 138], for which the EC50 at CLK3 kinase was found to be 0.197 µM; in test [1], 30 nM; at CLK2 kinase it was 0.001 µM; in test [2], 1.05 µM. In addition, the Emax in test [1] is 75.6%.
For the molecule `FC1(F)CCN(Cc2cncc(-c3ccc4[nH]nc(-c5cc6c(-c7ccccn7)cccc6[nH]5)c4n3)c2)C1` [compound 409], the EC50 worked out at 0.142 µM at CLK3 kinase, 10 nM in test [1], 0.005 µM at CLK2 kinase and 0.432 µM in test [2]. For the same molecule, the Emax in test [1] was found to be 81.9%.
Consider `COc1cccc(-c2nccc3[nH]c(-c4n[nH]c5ccc(-c6cccnc6)nc45)nc23)c1` [compound 295], for which the EC50 at CLK3 kinase came to 0.096 µM; in test [1], 30 nM; on CLK2 kinase, 0.002 µM; in test [2] it was 0.377 µM. Moreover, the Emax in test [1] was 50.6%.
`CCNCc1cncc(-c2ccc3[nH]nc(-c4cc5cnccc5[nH]4)c3c2)c1` [compound 439]: the EC50 on CLK3 kinase stood at 0.049 µM; on CLK2 kinase, 0.002 µM; in test [2], 1.03 µM. In addition, the Emax in test [1] was 317%.
In the case of `CN(C)Cc1cncc(-c2cnc3[nH]nc(-c4cc5c(-c6cccc(F)c6)cncc5[nH]4)c3c2)c1` [compound 310], the EC50 on CLK3 kinase was found to be 0.074 µM; in test [1], 10 nM; on CLK2 kinase, 0.004 µM; in test [2], 1.18 µM. Further, the Emax in test [1] amounted to 110%.
Turning to `CC(C)Nc1cncc(-c2ccc3[nH]nc(-c4cc5c(-c6cccnc6)ccnc5[nH]4)c3c2)c1` [compound 361], the EC50 at CLK3 kinase was 0.164 µM; on CLK2 kinase it was 0.005 µM; in test [2], greater than 10 µM. Also, the Emax in test [1] came out at 45.5%.
In the case of `c1ncc(-c2ccc3[nH]nc(-c4cc5c(-c6ccoc6)nccc5[nH]4)c3c2)cn1` [compound 505], the EC50 on CLK3 kinase stood at 0.217 µM; on CLK2 kinase, 0.004 µM; in test [2], 1.91 µM. The Emax in test [1] worked out at 40.2%.
Regarding `CCNCc1cncc(-c2ccc3[nH]nc(-c4nc5c(-c6cc(F)cc(NCCN(C)C)c6)ccnc5[nH]4)c3n2)c1` [compound 286], the EC50 is 0.082 µM at CLK3 kinase, 20.6 nM in test [1], 0.003 µM at CLK2 kinase and greater than 10 µM in test [2]. Further, in test [1], the Emax was determined as 149%.
Consider `c1cc2cc(-c3n[nH]c4ccc(-c5cncc(OCCN6CCCC6)c5)cc34)[nH]c2cn1` [compound 452], for which the values for the EC50 (on CLK3 kinase; at CLK2 kinase; in test [2]) were 0.068 µM, 0.002 µM and 1.85 µM, respectively. Moreover, in test [1], the Emax came to 44.6%.
On to `CN1CCN(c2nccc3[nH]c(-c4n[nH]c5cnc(-c6cncc(N)c6)cc45)cc23)CC1` [compound 472], for which the EC50 is 1.08 µM on CLK3 kinase, 0.01 µM at CLK2 kinase and greater than 10 µM in test [2]. Also, in test [1], the Emax worked out at 49.8%.
Take `Nc1cncc(-c2ccc3[nH]nc(-c4nc5c(-c6ccccc6F)ccnc5[nH]4)c3c2)c1` [compound 167]: the EC50 on CLK3 kinase came to 0.019 µM; in test [1], 30 nM; on CLK2 kinase, 0.004 µM; in test [2], 0.002 µM. Also, in test [1], the Emax turned out to be 113%.
Turning to `CN(C)Cc1cncc(-c2cnc3[nH]nc(-c4cc5c(-c6ccccc6F)cncc5[nH]4)c3c2)c1` [compound 336], the EC50 stood at 0.107 µM at CLK3 kinase, 0.003 µM at CLK2 kinase and 2.49 µM in test [2]. Moreover, the Emax in test [1] worked out at 60.9%.
Take `CC(C)Nc1cncc(-c2ccc3[nH]nc(-c4cc5c(-c6cccnc6)cccc5[nH]4)c3c2)c1` [compound 359]: the EC50 on CLK3 kinase came to 0.962 µM; in test [1], 10 nM; on CLK2 kinase it was 0.006 µM; in test [2] it was 0.1 µM. In test [1], the Emax turned out to be 226%.
Take `CC(C)CC(=O)Nc1cncc(-c2ccc3[nH]nc(-c4nc5c(-c6ccc(Cl)s6)cncc5[nH]4)c3n2)c1` [compound 266]: the EC50 on CLK3 kinase came out at 0.067 µM; in test [1] it was 10 nM; on CLK2 kinase, 0.015 µM; in test [2], 1.48 µM. For the same molecule, in test [1], the Emax was found to be 60.6%.
As for `FC1(F)CCN(Cc2cncc(-c3ccc4[nH]nc(-c5nc6c(-c7ccsc7)cncc6[nH]5)c4c3)c2)C1` [compound 253], the EC50 at CLK3 kinase amounted to 0.026 µM; at CLK2 kinase it was 0.007 µM; in test [2], 0.0018 µM. In test [1], the Emax came to 81.3%.
As for `O=C(Nc1cncc(-c2cnc3[nH]nc(-c4nc5c(-c6ccoc6)cncc5[nH]4)c3c2)c1)c1ccccc1` [compound 235], the EC50 at CLK3 kinase is 2.63 µM; in test [1], 100 nM; on CLK2 kinase it was 0.008 µM; in test [2], 0.051 µM. Moreover, the Emax in test [1] came out at 110%.
With `O=C(Nc1cncc(-c2ccc3[nH]nc(-c4cc5cnccc5[nH]4)c3c2)c1)C1CCC1` [compound 428], the EC50 on CLK3 kinase worked out at 0.019 µM; on CLK2 kinase, 0.002 µM; in test [2], 0.075 µM. Also, the Emax in test [1] was 213%.
On to `Cc1ncc(-c2cnc3[nH]nc(-c4nc5c(-c6cccc(F)c6)nccc5[nH]4)c3c2)n1C` [compound 159], for which the EC50 stood at 0.034 µM at CLK3 kinase, 100 nM in test [1], 0.001 µM at CLK2 kinase and 0.0125 µM in test [2]. Also, in test [1], the Emax is 152%.
As for `Oc1cncc(-c2ccc3[nH]nc(-c4nc5c(-c6cccc(F)c6)cccc5[nH]4)c3c2)c1` [compound 143], the EC50 on CLK3 kinase came out at 0.045 µM; on CLK2 kinase, 0.017 µM; in test [2], 0.011 µM. Further, in test [1], the Emax worked out at 52.2%.
On the same counts, the results for `CN1CCN(c2cncc3[nH]c(-c4n[nH]c5ccc(-c6cccnc6)cc45)nc23)CC1` [compound 213] are 0.051 µM, 0.001 µM, 0.053 µM and 80.6%.
Turning to `CN1CCN(c2nccc3[nH]c(-c4n[nH]c5cnc(-c6cncc(NC(=O)C(C)(C)C)c6)cc45)cc23)CC1` [compound 478], the EC50 was 0.137 µM at CLK3 kinase, 10 nM in test [1], 0.009 µM at CLK2 kinase and 1.88 µM in test [2]. For the same molecule, the Emax in test [1] turned out to be 88.2%.
Regarding `c1csc(-c2cncc3[nH]c(-c4n[nH]c5ncc(-c6cncc(CNCC7CCCC7)c6)cc45)nc23)c1` [compound 259], the EC50 amounted to 0.167 µM at CLK3 kinase, 0.004 µM on CLK2 kinase and 0.098 µM in test [2]. For the same molecule, the Emax in test [1] stood at 74.6%.
With `c1cncc(-c2ccc3[nH]nc(-c4nc5c(-c6cccnc6)cncc5[nH]4)c3c2)c1` [compound 178], the EC50 on CLK3 kinase came to 0.207 µM; in test [1], 30 nM; on CLK2 kinase it was 0.005 µM; in test [2], 0.035 µM. In test [1], the Emax is 159%.
The corresponding values for `O=C(Nc1nc2c(-c3cccc(F)c3)cncc2[nH]1)c1n[nH]c2ccc(-c3cccnc3)cc12` [compound 119] are 0.048 µM, 100 nM, 0.005 µM, 0.006 µM and 157%.
As for `CC(C)(C)CC(=O)Nc1cncc(-c2cnc3[nH]nc(-c4cc5c(-c6cccnc6)cncc5[nH]4)c3c2)c1` [compound 353], the EC50 is 0.085 µM at CLK3 kinase, 0.003 µM at CLK2 kinase and greater than 10 µM in test [2]. Besides, the Emax in test [1] was found to be 37.3%.
As to `CC(C)Nc1cncc(-c2ccc3[nH]nc(-c4nc5c(-c6cc(F)cc(NCCN(C)C)c6)nccc5[nH]4)c3c2)c1` [compound 282], the EC50 on CLK3 kinase came to 0.05 µM; in test [1], 30 nM; on CLK2 kinase it was 0.004 µM; in test [2], 0.202 µM. Moreover, in test [1], the Emax came out at 85.1%.
The corresponding values for `CN(C)c1cncc(-c2ccc3[nH]nc(-c4nc5c(-c6cccc(F)c6)ccnc5[nH]4)c3n2)c1` [compound 133] are 0.037 µM, 10 nM, 0.002 µM, 0.659 µM and 83.8%.
